Laboratory results reported in the NIST ThermoML archive (doi:10.1021/je8004112).

Assay: xn = mol fraction of the nth substance listed
Details: Ring tensiometer

OC1CCCCC1 [cyclohexanol] + CCCCCC
surface tension liquid-gas [mN/m]
Details | x2 = 0 | x2 = 0.007 | x2 = 0.009 | x2 = 0.012 | x2 = 0.021 | x2 = 0.03 | x2 = 0.042 | x2 = 0.075
293.15 K | 33.15 | 31.87 | 31.64 | 31.5 | 31.11 | 30.5 | 30 | 28.85
298.15 K | 32.74 | 31.5 | 31.31 | 31.08 | 30.71 | 30.07 | 29.59 | 28.42
303.15 K | 32.35 | 31.13 | 30.96 | 30.7 | 30.33 | 29.67 | 29.15 | 27.96
308.15 K | 31.91 | 30.77 | 30.64 | 30.26 | 29.96 | 29.26 | 28.74 | 27.5
313.15 K | 31.58 | 30.42 | 30.31 | 29.88 | 29.55 | 28.85 | 28.33 | 27.06

OC1CCCCC1 [cyclohexanol] + CCCCCCCCC
surface tension liquid-gas [mN/m]
Details | x2 = 0 | x2 = 0.003 | x2 = 0.006 | x2 = 0.008 | x2 = 0.012 | x2 = 0.022 | x2 = 0.041 | x2 = 0.06
293.15 K | 33.15 | 32.91 | 32.7 | 32.65 | 32.24 | 31.79 | 30.67 | 29.88
298.15 K | 32.74 | 32.51 | 32.3 | 32.22 | 31.85 | 31.44 | 30.3 | 29.48
303.15 K | 32.35 | 32.11 | 31.84 | 31.78 | 31.49 | 31.09 | 29.91 | 29.11
308.15 K | 31.91 | 31.72 | 31.44 | 31.35 | 31.09 | 30.72 | 29.52 | 28.72
313.15 K | 31.58 | 31.36 | 31.08 | 30.94 | 30.75 | 30.38 | 29.17 | 28.37
318.15 K | 31.13 | 30.99 | 30.69 | 30.52 | 30.41 | 29.99 | 28.8 | 27.98
323.15 K | 30.78 | 30.54 | 30.3 | 30.07 | 30.02 | 29.62 | 28.41 | 27.56

CCCCCCCCCCCC [dodecane] + OC1CCCCC1
x1 = 1
Details | surface tension liquid-gas [mN/m]
293.15 K | 24.28
298.15 K | 23.84
303.15 K | 23.38
308.15 K | 22.98
313.15 K | 22.56
318.15 K | 22.14
323.15 K | 21.71

CCCCCC [hexane] + OC1CCCCC1
x1 = 1
Details | surface tension liquid-gas [mN/m]
293.15 K | 18.56
298.15 K | 18.03
303.15 K | 17.44
308.15 K | 16.92
313.15 K | 16.38

OC1CCCCC1 [cyclohexanol] + CCCCCCCCCCCC
surface tension liquid-gas [mN/m]
Details | x2 = 0 | x2 = 0.006 | x2 = 0.009 | x2 = 0.011 | x2 = 0.022 | x2 = 0.031 | x2 = 0.046 | x2 = 0.075
293.15 K | 33.15 | 31.7 | 31.11 | 30.68 | 30.22 | 29.81 | 29.14 | 27.16
298.15 K | 32.74 | 31.23 | 30.71 | 30.32 | 29.85 | 29.37 | 28.74 | 26.8
303.15 K | 32.35 | 30.78 | 30.28 | 29.99 | 29.46 | 28.87 | 28.35 | 26.47
308.15 K | 31.91 | 30.35 | 29.88 | 29.61 | 29.08 | 28.44 | 27.98 | 26.1
313.15 K | 31.58 | 29.92 | 29.49 | 29.25 | 28.72 | 28.01 | 27.58 | 25.76
318.15 K | 31.13 | 29.49 | 29.07 | 28.88 | 28.35 | 27.57 | 27.21 | 25.44
323.15 K | 30.78 | 29 | 28.69 | 28.5 | 27.99 | 27.13 | 26.83 | 25.09

OC1CCCCC1 [cyclohexanol] + CCCCCCC
surface tension liquid-gas [mN/m]
Details | x2 = 0 | x2 = 0.011 | x2 = 0.014 | x2 = 0.02 | x2 = 0.025 | x2 = 0.033 | x2 = 0.037 | x2 = 0.061
293.15 K | 33.15 | 32.84 | 32.69 | 32.56 | 31.8 | 31.53 | 31.38 | 29.87
298.15 K | 32.74 | 32.47 | 32.29 | 32.2 | 31.48 | 31.17 | 31.01 | 29.54
303.15 K | 32.35 | 32.11 | 31.92 | 31.8 | 31.08 | 30.82 | 30.56 | 29.2
308.15 K | 31.91 | 31.78 | 31.55 | 31.39 | 30.74 | 30.44 | 30.14 | 28.83
313.15 K | 31.58 | 31.43 | 31.23 | 31.01 | 30.41 | 30.1 | 29.77 | 28.54
318.15 K | 31.13 | 31.07 | 30.85 | 30.57 | 30.07 | 29.76 | 29.39 | 28.23
323.15 K | 30.78 | 30.7 | 30.45 | 30.16 | 29.7 | 29.43 | 28.99 | 27.87

C1CCCCC1 [cyclohexane] + OC1CCCCC1
x1 = 1
Details | surface tension liquid-gas [mN/m]
293.15 K | 25.06
298.15 K | 24.45
303.15 K | 23.87
308.15 K | 23.21
313.15 K | 22.71
318.15 K | 22.05
323.15 K | 21.45
